What all share (details): biochemical activity; 10 μM ATP
Assay [1] concerns the target KDR (Homo sapiens, UniProt P35968). The assay is described as follows: Human KDR kinase assay (33P-phosphoryl transfer radiometric, KinaseProfiler). More on the design: Human KDR (residues K790-V1356, 55 nM); purchased Eurofins Pharma Discovery Services UK Limited (KinaseProfiler service).
In assay [2] the target is T1, Human Mer (Homo sapiens, UniProt Q12866).
T1 construct: Human Mer (residues R557-E882 with H628Q and R794A, 0.7 nM); purchased Eurofins Pharma Discovery Services UK Limited (KinaseProfiler service)
T1 sequence (Q12866 557-882 limits assumed): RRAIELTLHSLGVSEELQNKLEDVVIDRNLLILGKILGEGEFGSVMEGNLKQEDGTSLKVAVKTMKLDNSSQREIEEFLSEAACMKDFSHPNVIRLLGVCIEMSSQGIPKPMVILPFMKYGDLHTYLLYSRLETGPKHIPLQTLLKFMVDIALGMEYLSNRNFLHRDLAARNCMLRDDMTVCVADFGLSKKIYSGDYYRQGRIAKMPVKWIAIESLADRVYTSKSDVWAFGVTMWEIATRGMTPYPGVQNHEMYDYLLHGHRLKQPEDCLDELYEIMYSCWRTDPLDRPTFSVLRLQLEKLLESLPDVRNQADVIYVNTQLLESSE
The assay is described as follows: Human Mer kinase assay (33P-phosphoryl transfer radiometric, KinaseProfiler). In outline:
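Radiometric filter-binding assay with human Mer R557-E882 (H628Q/R794A; 0.7 nM) in MOPS pH 7.0. Nine half-log compound concentrations (top 1 μM, 2% DMSO) gave IC50 by variable-slope sigmoidal fit.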

Assay [3] has as its target T2, Human Axl (Homo sapiens, UniProt P30530, Q764R).
T2 construct: Human Axl (residues H473-A894 with Q764R, 161 nM); purchased Eurofins Pharma Discovery Services UK Limited (KinaseProfiler service)
T2 sequence (P30530 473-894 Q764R): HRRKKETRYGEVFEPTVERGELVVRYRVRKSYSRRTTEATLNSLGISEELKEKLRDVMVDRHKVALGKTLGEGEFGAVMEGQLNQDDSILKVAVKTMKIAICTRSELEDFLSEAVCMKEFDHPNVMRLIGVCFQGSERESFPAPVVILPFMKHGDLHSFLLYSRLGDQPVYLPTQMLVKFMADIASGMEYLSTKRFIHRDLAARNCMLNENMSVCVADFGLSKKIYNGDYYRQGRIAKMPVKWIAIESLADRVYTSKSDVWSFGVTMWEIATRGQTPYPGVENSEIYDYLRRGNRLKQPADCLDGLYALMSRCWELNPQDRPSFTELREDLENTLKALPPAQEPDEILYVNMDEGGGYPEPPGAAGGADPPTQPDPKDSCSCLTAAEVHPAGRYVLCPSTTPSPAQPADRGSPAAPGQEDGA
The assay is described as follows: Human AXL kinase assay (33P-phosphoryl transfer radiometric, KinaseProfiler).

pIC50: −log10 of the molar value. Bounds are passed on as bounds.

Chain of KDR (P35968 790-1356): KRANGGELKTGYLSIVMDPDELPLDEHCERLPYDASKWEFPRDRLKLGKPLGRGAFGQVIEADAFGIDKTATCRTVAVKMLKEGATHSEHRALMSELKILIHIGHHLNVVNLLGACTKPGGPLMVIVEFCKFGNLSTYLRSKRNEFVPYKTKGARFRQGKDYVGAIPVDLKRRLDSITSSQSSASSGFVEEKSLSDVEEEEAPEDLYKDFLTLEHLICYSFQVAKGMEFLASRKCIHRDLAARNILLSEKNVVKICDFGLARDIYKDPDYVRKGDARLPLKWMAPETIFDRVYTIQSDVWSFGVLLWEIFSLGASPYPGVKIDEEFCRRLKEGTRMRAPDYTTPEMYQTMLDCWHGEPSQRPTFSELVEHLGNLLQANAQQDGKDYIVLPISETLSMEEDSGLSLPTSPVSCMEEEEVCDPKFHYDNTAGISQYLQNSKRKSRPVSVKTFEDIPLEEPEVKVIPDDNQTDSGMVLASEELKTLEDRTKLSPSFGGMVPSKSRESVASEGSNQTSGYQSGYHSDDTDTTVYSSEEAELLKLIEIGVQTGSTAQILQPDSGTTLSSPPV

As a reminder, the pIC50 is the IC50 on a negative log10 scale, so that one unit is a factor of ten. Read a high pIC50 as a small IC50. Regarding `O=C(Nc1ccc(F)cc1)C1(C(=O)Nc2ccc(Oc3ccnc4cc(-c5cnn(C(F)F)c5)ccc34)cc2)CC1` [Compound 13, 1-N-[4-[7-[1-(Difluoromethyl)pyrazol-4-yl]quinolin-4-yl]oxyphenyl]-1-N′-(4-fluorophenyl)cyclopropane-1,1-dicarboxamide], the pIC50 in assay [1] was 7.00 to 8.00; in assay [2], at least 8.00; in assay [3], 7.00 to 8.00.

Values taken from patent publication US12503438B2, “Compounds for the treatment of kinase-dependent disorders” (Exelixis, Inc., priority 2019, dated 2025).
